Results from the supplement of paper PMC10307832.

How the values were obtained:
Assay in all cases: relative viability (nuclei count vs DMSO), 5 days (fraction); higher = more cells survive
Cediranib + Vorinostat = compound: COc1cc2c(Oc3ccc4[nH]c(C)cc4c3F)ncnc2cc1OCCCN1CCCC1 [Cediranib] + O=C(CCCCCCC(=O)Nc1ccccc1)NO [Vorinostat] (partner 1 µM)
How it was run: (§1)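 Lung cancer cell lines in 1536-well plates were dosed by pin tool the day after seeding, either with one drug alone or with a fixed anchor-drug dose plus five library-drug doses (not always all listed) in √10 steps. After 5 days, cells were fixed and their nuclei stained in one step (final 0.05% Triton X-100, 1% formaldehyde, 1 ug/ml Hoechst), then counted on 4× images. Relative viability is the nuclei count in treated wells divided by that in vehicle wells. Values are medians of duplicate plates.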

Cediranib + Trametinib = compound: COc1cc2c(Oc3ccc4[nH]c(C)cc4c3F)ncnc2cc1OCCCN1CCCC1 [Cediranib] + CC(=O)Nc1cccc(-n2c(=O)n(C3CC3)c(=O)c3c(Nc4ccc(I)cc4F)n(C)c(=O)c(C)c32)c1 [Trametinib] (partner 0.02 µM)
How it was run: as §1

Decitabine + Navitoclax = compound: Nc1ncn([C@H]2C[C@H](O)[C@@H](CO)O2)c(=O)n1 [Decitabine] + CC1(C)CCC(c2ccc(Cl)cc2)=C(CN2CCN(c3ccc(C(=O)NS(=O)(=O)c4ccc(N[C@H](CCN5CCOCC5)CSc5ccccc5)c(S(=O)(=O)C(F)(F)F)c4)cc3)CC2)C1 [Navitoclax] (partner 0.5 µM)
How it was run: as §1

Row | Cell Line | relative viability (Cediranib + Vorinostat; first compound 0.1265 µM) | relative viability (Cediranib + Vorinostat; first compound 0.4 µM) | relative viability (Cediranib + Vorinostat; first compound 1.265 µM) | relative viability (Cediranib + Vorinostat; first compound 4 µM) | relative viability (Cediranib + Trametinib; first compound 0.1265 µM) | relative viability (Cediranib + Trametinib; first compound 0.4 µM) | relative viability (Cediranib + Trametinib; first compound 1.265 µM) | relative viability (Cediranib + Trametinib; first compound 4 µM) | relative viability (Decitabine + Navitoclax; first compound 0.04 µM) | relative viability (Decitabine + Navitoclax; first compound 0.1265 µM) | relative viability (Decitabine + Navitoclax; first compound 0.4 µM) | relative viability (Decitabine + Navitoclax; first compound 1.265 µM) | relative viability (Decitabine + Navitoclax; first compound 4 µM) | relative viability (Cediranib + Vorinostat; first compound 0.04 µM) | relative viability (Cediranib + Trametinib; first compound 0.04 µM)
1 | NCI-H1993 | 0.633 | 0.727 | 0.567 | 0.688 | 0.48 | 0.56 | 0.504 | 0.641 | 0.917 | 0.993 | 0.906 | 0.732 | 0.87 | – | –
2 | NCI-H2009 | 0.672 | 0.715 | 0.736 | 0.717 | 0.335 | 0.237 | 0.213 | 0.276 | 0.945 | 0.722 | 0.568 | 0.416 | 0.263 | 0.736 | 0.288
3 | NCI-H2023 | 0.4 | 0.545 | 0.723 | 0.9 | 0.585 | 0.565 | 0.591 | 0.905 | 0.609 | 0.517 | 0.379 | 0.259 | 0.198 | 0.739 | 0.592
4 | NCI-H2085 | 0.721 | 0.746 | 0.832 | 0.769 | 0.523 | 0.475 | 0.49 | 0.526 | 0.882 | 0.736 | 0.67 | 0.497 | 0.467 | 0.832 | 0.571
5 | NCI-H2087 | 0.694 | 0.474 | 0.671 | 0.63 | 0.29 | 0.179 | 0.183 | 0.288 | 0.635 | 0.562 | 0.458 | 0.369 | 0.357 | 0.939 | 0.221
